Values joined by “and” are separate entries in the source; they are usually repeats but may differ in a detail not shown here. Identical values can stand only once.
c1ccc(-c2cnc(-c3ccccc3)o2)cc1
298.15 K
Conditions	solubility (mole fraction)
in acetone	0.29
in ethanol	0.04
in water	1.41e-07

CN1C(C(=O)Nc2ccccn2)=C(O)c2sc(Cl)cc2S1(=O)=O
298.15 K
Conditions	solubility (mole fraction)
in ethanol	1.3e-05
in water	3e-06

OCCCCCCO
in ethyl acetate
Conditions	solubility (mole fraction)
278.15 K	0.0148
283.15 K	0.0274
288.15 K	0.0387
293.15 K	0.0512
298.15 K	0.0834

CC1(C)S[C@@H]2[C@H](NC(=O)COc3ccccc3)C(=O)N2[C@H]1C(=O)[O-].[K+]
in ethanol
Conditions	solubility (mole fraction)
278.15 K	0.00047
283.15 K	0.000485
293.15 K	0.000866
298.15 K	0.00117
303.15 K	0.00207
308.15 K	0.0029
313.15 K	0.00428

O=c1[nH]cc(Br)c(=O)[nH]1
Conditions	solubility (mole fraction)
in water, 298.15 K	0.000272

Cc1cnc(NC(=O)C2=C(O)c3ccccc3S(=O)(=O)N2C)s1
solubility (mole fraction)
Conditions	293.15 K	298.15 K	303.15 K	308.15 K	313.15 K
in methanol	4.02e-05	4.87e-05 and 3.93e-05	5.88e-05	7.04e-05	8.46e-05
in water	–	4.23e-06	–	–	–

CC(=O)N1CCN(c2ccc(OC[C@@H]3CO[C@@](Cn4ccnc4)(c4ccc(Cl)cc4Cl)O3)cc2)CC1 (racemic)
solubility (mole fraction)
Conditions	in 1,4-dioxane	in NMP	in ethanol	in isopropanol	in propylene glycol	in transcutol
293.2 K	0.00683	0.019	0.00275	0.000773	0.00161	0.0116
298.2 K	0.00833	0.023	0.00358	0.000948	0.00219	0.0136
303.2 K	0.00983	0.0282	0.00434	0.00121	0.00293	0.0159
308.2 K	0.0121	0.0321	0.00561	0.0018	0.00348	0.0189
313.2 K	0.0139	0.0376	0.00649	0.00237	0.00507	0.0212

O=c1[nH]cc(Cl)c(=O)[nH]1
Conditions	solubility (mole fraction)
in water, 298.15 K	0.000308

O=C(C(=O)c1ccccc1)c1ccccc1
298.15 K
Conditions	solubility (mole fraction)
in 2,2,4-trimethylpentane	0.00589
in 4-methyl-2-pentanol	0.0128
in cyclohexane	0.0107
in dibutyl ether	0.0335
in isobutanol	0.00969
in isopentanol	0.0128
in isopropanol	0.00831
in methylcyclohexane	0.0113
in n-butanol	0.0131
in n-heptane	0.00656
in n-hexane	0.00575
in n-octane	0.00724
in n-octanol	0.0169
in n-pentanol	0.015
in n-propanol	0.0118
in sec-butanol	0.011

O=C(O)c1ccc(-n2nc(-c3ccccc3O)nc2-c2ccccc2O)cc1
298.2 K
Conditions	solubility (mole fraction)
in acetonitrile	0.00106
in ethanol	0.0143
in methanol	0.0119
in propylene glycol	0.0195

C(=N\Nc1ccccc1)/c1ccc[nH]1
Conditions	solubility (mole fraction)
in water, 298.15 K	5.86e-07

C[C@@H](O)[C@H]1C(=O)N2C(C(=O)O)=C(S[C@@H]3CN[C@H](C(=O)N(C)C)C3)[C@H](C)[C@H]12.O.O.O
in water
Conditions	solubility (mole fraction)
278.15 K	0.000408
283.15 K	0.000445
288.15 K	0.00051
293.15 K	0.000556
298.15 K	0.00066
303.15 K	0.000782
